The values that follow are results of earlier work, collected in patent US11406619B2, “Injectable formulations” (priority 2020, dated 2022).

The conditions of the data set: according to the Human Metabolome Database; cited from earlier work.

SMILES strings stand for the structures.

For the compound `CN(C)CCc1c[nH]c2ccccc12` [Formulation D0, N,N-dimethyltryptamine], the degradation in solution result is recorded as “degrades relatively quickly in solution”.
